Reference: US20090012103A1, “SUBSTITUTED HETEROCYCLIC COMPOUNDS” (priority 2007, published 2009)

What follows are compounds tested against wild-type human cardiac sodium channel, hNav1.5 (Homo sapiens, UniProt Q14524) (assay: Late INa screening assay (late sodium current, PatchXpress whole cell patch clamp)). Conditions: compound at 10 μM; read-out: Late INa % blk.
Assay type: cell-based
Description: The late sodium current (Late INa) and peak sodium current (Peak INa) assays are performed on an automated electrophysiology platform, PatchXpress 7000A (MDS Analytical Technologies, Sunnyvale, Calif.), which uses the whole cell patch clamp technique to measure currents through the cell membrane of up to 16 cells at a time. The assay uses an HEK293 (human embryonic kidney) cell line heterologously expressing the wild-type human cardiac sodium channel, hNav1.5, purchased from Millipore (Billerica, Mass.). No beta subunits were coexpressed with the Na channel alpha subunit. […] Experiments are carried out at 24-27° C.
For both the Late INa and Peak INa assays, series resistance compensation is set to 50% and whole-cell compensation is performed automatically. […] Currents through open sodium channels are automatically recorded and stored in the DataXpress2 database (MDS Analytical Technologies, Sunnyvale, Calif.). Analysis is performed using DataXpress2 analysis software and data are compiled in Excel.
Compound stocks are routinely made in glass vials to 10 mM in dimethyl sulfoxide (DMSO). In some cases, when compounds are not soluble in DMSO, they are made in 100% ethanol. Stocks are sonicated as necessary. The extracellular solution for screening Late INa is composed of: 140 mM NaCl, 4 mM KCl, 1.8 mM CaCl2, 0.75 mM MgCl2, and 5 mM HEPES with pH adjusted to 7.4 using NaOH. The extracellular solution for screening Peak INa is composed of: 20 mM NaCl, 120 mM N-methyl-D glucamine, 4 mM KCl, 1.8 mM CaCl2, 0.75 mM MgCl2, and 5 mM HEPES with pH adjusted to 7.4 using HCl. The intracellular solution used to perfuse the inside of the cells for both the Late INa and Peak INa assays contains: 120 mM CsF, 20 mM CsCl, 5 mM EGTA, 5 mM HEPES and pH adjusted to 7.4 with CsOH. Compounds are diluted in extracellular solution to 10 μM in glass vials and then transferred to glass well plates before robotic addition to the cells. The 0 Na extracellular solution used at the end of each experiment for the Late INa and Peak INa assays to measure baseline current contains: 140 mM N-methyl-D-glucamine; 4 mM KCl; 1.8 mM CaCl2; 0.75 mM MgCl2; 5 mM HEPES and pH was adjusted to 7.4 with HCl.
For the Late INa assay, sodium channels are activated every 10 seconds (0.1 Hz) by depolarizing the cell membrane to −20 mV for 250 milliseconds (ms) from a holding potential of −120 mV.
All compounds are tested to determine their activity in blocking the late sodium current. Late INa current is generated by adding 10 μM Tefluthrin (pyrethroid) to the extracellular solution while recording Na currents. […] For some experiments, 50 nM ATX II (sea anemone toxin), another late INa activator, was used to generate the late component. […] Baseline current in the absence of Na^+ ions is measured at the end of each experiment (after two additions of 0 Na solution-see above) and is used to calculate the percent block by compound.

Chain of wild-type human cardiac sodium channel, hNav1.5 (Q14524 whole entry): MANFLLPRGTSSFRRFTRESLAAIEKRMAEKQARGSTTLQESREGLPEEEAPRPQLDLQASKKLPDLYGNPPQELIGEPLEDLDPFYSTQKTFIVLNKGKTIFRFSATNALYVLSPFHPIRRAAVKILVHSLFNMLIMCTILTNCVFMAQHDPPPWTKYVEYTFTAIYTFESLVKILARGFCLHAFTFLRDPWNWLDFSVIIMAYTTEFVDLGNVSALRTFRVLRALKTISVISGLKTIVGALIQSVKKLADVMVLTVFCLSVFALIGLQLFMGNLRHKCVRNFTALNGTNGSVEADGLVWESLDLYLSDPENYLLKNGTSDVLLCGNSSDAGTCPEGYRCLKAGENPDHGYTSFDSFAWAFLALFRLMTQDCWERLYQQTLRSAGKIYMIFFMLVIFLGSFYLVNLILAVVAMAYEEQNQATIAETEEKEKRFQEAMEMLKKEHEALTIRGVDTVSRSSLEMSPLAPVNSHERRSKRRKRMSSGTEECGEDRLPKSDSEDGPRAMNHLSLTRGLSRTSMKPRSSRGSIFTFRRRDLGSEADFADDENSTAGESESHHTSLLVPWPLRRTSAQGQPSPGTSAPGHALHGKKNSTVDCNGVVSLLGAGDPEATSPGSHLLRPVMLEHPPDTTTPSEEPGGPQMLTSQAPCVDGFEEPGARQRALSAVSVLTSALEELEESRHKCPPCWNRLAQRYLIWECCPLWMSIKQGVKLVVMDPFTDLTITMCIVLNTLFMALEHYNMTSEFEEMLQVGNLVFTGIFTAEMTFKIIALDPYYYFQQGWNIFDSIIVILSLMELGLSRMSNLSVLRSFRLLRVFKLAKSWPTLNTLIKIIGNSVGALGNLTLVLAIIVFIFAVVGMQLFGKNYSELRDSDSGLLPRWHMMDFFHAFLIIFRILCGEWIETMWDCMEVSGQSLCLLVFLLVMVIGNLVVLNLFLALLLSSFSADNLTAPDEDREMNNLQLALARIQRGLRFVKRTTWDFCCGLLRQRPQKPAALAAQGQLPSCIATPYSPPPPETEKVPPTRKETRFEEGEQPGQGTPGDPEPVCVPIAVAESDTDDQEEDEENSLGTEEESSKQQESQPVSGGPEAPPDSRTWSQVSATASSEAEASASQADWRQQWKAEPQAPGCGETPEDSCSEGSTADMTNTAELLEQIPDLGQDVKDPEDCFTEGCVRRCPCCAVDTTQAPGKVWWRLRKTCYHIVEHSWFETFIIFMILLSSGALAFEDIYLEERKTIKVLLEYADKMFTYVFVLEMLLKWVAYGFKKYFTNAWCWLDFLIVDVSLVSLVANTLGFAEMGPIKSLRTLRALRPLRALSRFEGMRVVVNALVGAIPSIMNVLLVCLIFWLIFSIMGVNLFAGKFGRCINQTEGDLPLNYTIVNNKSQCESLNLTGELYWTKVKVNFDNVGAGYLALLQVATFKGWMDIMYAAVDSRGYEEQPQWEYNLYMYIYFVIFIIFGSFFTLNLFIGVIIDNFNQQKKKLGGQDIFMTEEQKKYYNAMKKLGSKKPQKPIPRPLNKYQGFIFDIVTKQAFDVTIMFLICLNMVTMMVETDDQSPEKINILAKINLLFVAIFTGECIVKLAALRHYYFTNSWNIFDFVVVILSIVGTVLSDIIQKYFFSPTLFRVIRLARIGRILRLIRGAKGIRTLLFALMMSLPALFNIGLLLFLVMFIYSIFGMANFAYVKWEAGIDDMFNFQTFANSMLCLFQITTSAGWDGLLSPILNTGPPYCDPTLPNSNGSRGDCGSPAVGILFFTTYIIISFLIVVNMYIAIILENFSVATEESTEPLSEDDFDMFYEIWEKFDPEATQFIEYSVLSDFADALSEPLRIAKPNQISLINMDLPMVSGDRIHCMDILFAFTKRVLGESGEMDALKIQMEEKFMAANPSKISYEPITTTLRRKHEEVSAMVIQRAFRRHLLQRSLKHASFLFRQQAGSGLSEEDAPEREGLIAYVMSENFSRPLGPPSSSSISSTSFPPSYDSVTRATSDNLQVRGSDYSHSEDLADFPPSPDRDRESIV

Compared with `Cc1nn(-c2ccccc2)c2c1C(c1cccc3ccccc13)C1=C(COC1=O)N2` (stereo not drawn) [PT-083, 3-methyl-4-(naphthalen-1-yl)-1-phenyl-7,8-dihydro-1H-furo[3,4-e]pyrazolo[3,4-b]pyridin-5(4H)-one], `CC1=C(C(=O)OCc2ccccc2)C(c2cccc3ccccc23)c2c(-c3ccc(C)cc3)n[nH]c2N1` (stereo not drawn) [PT-077, benzyl 6-methyl-4-(naphthalen-1-yl)-3-p-tolyl-4,7-dihydro-1H-pyrazolo[3,4-b]pyridine-5-carboxylate] is lower in inhibition at 10 µM: 30% for the first, -2.6% for the second.

Going from `CC1=C(C(=O)OCc2ccc(-n3cccn3)cc2)C(c2cccc3ccccc23)n2nnnc2N1` (stereo not drawn) [PT-289, 4-(1H-pyrazol-1-yl)benzyl 5-methyl-7-(naphthalen-1-yl)-4,7-dihydrotetrazolo[1,5-a]pyrimidine-6-carboxylate] to `CC1=C(C(=O)OCc2ccc(Oc3ccccc3)cc2)C(c2cccc3ccccc23)n2nnnc2N1` (stereo not drawn) [PT-003, 4-phenoxybenzyl 5-methyl-7-(naphthalen-1-yl)-4,7-dihydrotetrazolo[1,5-a]pyrimidine-6-carboxylate], the inhibition at 10 µM rises from 3.3% to 14.5%.

Compared with `CCOC(=O)C1=C(C)NC2=C(C(=O)c3ccccc32)C1c1cccs1` (stereo not drawn) [PT-187, ethyl 2-methyl-5-oxo-4-(thiophen-2-yl)-4,5-dihydro-1H-indeno[1,2-b]pyridine-3-carboxylate], `CCOC(=O)C1=C(C)Nc2[nH]ncc2C1c1c(Br)sc2ccccc12` (stereo not drawn) [PT-447, ethyl 4-(2-bromobenzo[b]thiophen-3-yl)-6-methyl-4,7-dihydro-1H-pyrazolo[3,4-b]pyridine-5-carboxylate] is higher in inhibition at 10 µM: -2.6% for the first, 77.4% for the second.

Going from `CC1=C(C(=O)OCc2ccccc2)C(c2ccccc2-c2ccc(S(C)(=O)=O)cc2)n2nnnc2N1` (stereo not drawn) [PT-354, benzyl 5-methyl-7-(4′-(methylsulfonyl)biphenyl-2-yl)-4,7-dihydrotetrazolo[1,5-a]pyrimidine-6-carboxylate] to `CC1=C(C(=O)OCc2ccccc2)[C@@H](c2ccccc2-c2ccc(C(F)(F)F)cc2)n2nnnc2N1` [PT-236, (R)-benzyl 5-methyl-7-(4′-(trifluoromethyl)biphenyl-2-yl)-4,7-dihydrotetrazolo[1,5-a]pyrimidine-6-carboxylate], the inhibition at 10 µM rises from 64.7% to 68%.

Compared with `CC1=C(C(=O)OCc2ccccc2)[C@@H](c2ccccc2-c2cccc(C(N)=O)c2)n2nnnc2N1` [PT-238, (R)-benzyl 7-(3′-carbamoylbiphenyl-2-yl)-5-methyl-4,7-dihydrotetrazolo[1,5-a]pyrimidine-6-carboxylate], `CC1=C(C(=O)OCc2ccccc2)C(c2ccccc2-c2ccccc2C)n2nnnc2N1` (stereo not drawn) [PT-344, benzyl 5-methyl-7-(2′-methylbiphenyl-2-yl)-4,7-dihydrotetrazolo[1,5-a]pyrimidine-6-carboxylate] is lower in inhibition at 10 µM: 49.9% for the first, 44.6% for the second.

Going from `CCOC(=O)C1=C(C)Nc2nnnn2C1c1ccccc1OCc1cccc(C(=O)OC)c1` (stereo not drawn) [PT-480, ethyl 7-(2-(3-(methoxycarbonyl)benzyloxy)phenyl)-5-methyl-4,7-dihydrotetrazolo[1,5-a]pyrimidine-6-carboxylate] to `CCOC(=O)C1=C(C)Nc2nnnn2C1c1ccccc1-c1ccc(C#N)cc1` (stereo not drawn) [PT-503, ethyl 7-(4′-cyanobiphenyl-2-yl)-5-methyl-4,7-dihydrotetrazolo[1,5-a]pyrimidine-6-carboxylate], the inhibition at 10 µM rises from 5.4% to 29.2%.

Going from `CCOC(=O)C1=C(C)Nc2nnnn2C1c1sccc1Br` (stereo not drawn) [PT-498, ethyl 7-(3-bromothiophen-2-yl)-5-methyl-4,7-dihydrotetrazolo[1,5-a]pyrimidine-6-carboxylate] to `COc1cc(Cl)ccc1COC(=O)C1=C(C)Nc2nnnn2C1c1ccccc1Br` (stereo not drawn) [PT-308, 4-chloro-2-methoxybenzyl 7-(2-bromophenyl)-5-methyl-4,7-dihydrotetrazolo[1,5-a]pyrimidine-6-carboxylate], the inhibition at 10 µM rises from 25.2% to 53.4%.

Going from `CCOC(=O)C1=C(C)Nc2nnnn2C1c1ccc(C2C(C(=O)OCC)=C(C)Nc3nnnn32)cc1` (stereo not drawn) [PT-201, diethyl 7,7′-(1,4-phenylene)bis(5-methyl-4,7-dihydrotetrazolo[1,5-a]pyrimidine-6-carboxylate)] to `CCOC(=O)C1=C(C)NC(C)=C(C(=O)OCC)C1c1ccc(CC)o1` [PT-121, diethyl 4-(5-ethylfuran-2-yl)-2,6-dimethyl-1,4-dihydropyridine-3,5-dicarboxylate], the inhibition at 10 µM rises from 7.8% to 54.8%.

Going from `CCOC(=O)c1c(C)nc2[nH]ncc2c1-c1cccc2ccccc12` [PT-472, ethyl 6-methyl-4-(naphthalen-1-yl)-1H-pyrazolo[3,4-b]pyridine-5-carboxylate] to `CCOC(=O)C1=C(C)Nc2[nH]ncc2C1c1cccc(Oc2ccccc2)c1` (stereo not drawn) [PT-470, ethyl 6-methyl-4-(3-phenoxyphenyl)-4,7-dihydro-1H-pyrazolo[3,4-b]pyridine-5-carboxylate], the inhibition at 10 µM rises from 22.6% to 26%.

Compared with `CC1=C(C(=O)OC(C)(C)C)C(c2cccc3ccccc23)n2nnnc2N1` (stereo not drawn) [PT-023, tert-butyl 5-methyl-7-(naphthalen-1-yl)-4,7-dihydrotetrazolo[1,5-a]pyrimidine-6-carboxylate], `CC1=C(C(=O)OCc2ccccc2)C(c2ccnc3ccccc23)n2nnnc2N1` (stereo not drawn) [PT-197, benzyl 5-methyl-7-(quinolin-4-yl)-4,7-dihydrotetrazolo[1,5-a]pyrimidine-6-carboxylate] is lower in inhibition at 10 µM: 32.8% for the first, 21.5% for the second.

Going from `CCOC(=O)c1c(C)nc(C)c(C(=O)OCC)c1-c1sc2ccccc2c1C` [PT-117, diethyl 2,6-dimethyl-4-(3-methylbenzo[b]thiophen-2-yl)pyridine-3,5-dicarboxylate] to `CCOC(=O)C1=C(CC)NC2=C(C(=O)CCC2)C1c1ccc(OC)c2ccccc12` (stereo not drawn) [PT-136, ethyl 2-ethyl-4-(4-methoxynaphthalen-1-yl)-5-oxo-1,4,5,6,7,8-hexahydroquinoline-3-carboxylate], the inhibition at 10 µM rises from 38.9% to 45.2%.

First: CC1=C(C(=O)OCc2ccccc2)C(c2ccc3ccccc3c2)C(C(=O)OCc2ccccc2)=C(C)N1 [PT-129, dibenzyl 2,6-dimethyl-4-(naphthalen-2-yl)-1,4-dihydropyridine-3,5-dicarboxylate]
Second: CC1=C(C(=O)OCc2ccccc2)C(c2ccc3ccccc3c2)n2nnnc2N1 (stereo not drawn) [PT-028, benzyl 5-methyl-7-(naphthalen-2-yl)-4,7-dihydrotetrazolo[1,5-a]pyrimidine-6-carboxylate]
The inhibition at 10 µM of the first is lower: 17.6% for the first, 23.1% for the second.

First: CC1=C(C(=O)OC(C)C)C(c2cc(-c3ccccc3)cs2)C2=C(CC(C)(C)CC2=O)N1 (stereo not drawn) [PT-159, isopropyl 2,7,7-trimethyl-5-oxo-4-(4-phenylthiophen-2-yl)-1,4,5,6,7,8-hexahydroquinoline-3-carboxylate]
Second: CC1=C(C(=O)O[C@@H](C)c2ccccc2)C(c2cc3ccccc3o2)n2nnnc2N1 (stereo partly drawn) [PT-058, (S)-1-phenylethyl 7-(benzofuran-2-yl)-5-methyl-4,7-dihydrotetrazolo[1,5-a]pyrimidine-6-carboxylate]
The inhibition at 10 µM of the first is lower: 46.3% for the first, 71.4% for the second.

Same assay, conditions: result in words

For `CC1=C(C(=O)N2CCN(c3ccccc3)CC2)C(c2ccsc2)C2=C(CCCC2=O)N1` (stereo not drawn) [PT-166, 2-methyl-3-(4-phenylpiperazine-1-carbonyl)-4-(thiophen-3-yl)-4,6,7,8-tetrahydroquinolin-5(1H)-one], the “effect on late sodium current” value was “potentiated late sodium current”.
